According to PubChem BioAssay (NCI):
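Cells were grown in 96-well plates and exposed to each compound for 48 hours at five concentrations; endpoints were interpolated linearly between bracketing concentrations, or set to the highest concentration if not reached. Abbreviation: GI50, concentration required for 50% inhibition of growth. TGI marks complete inhibition of growth.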

What was measured:
Assay in all cases: NCI-60 cell line screen, 48 h
HT29 colon = tested on: HT29 colon
MALME-3M melanoma = tested on: MALME-3M melanoma
OVCAR-5 ovarian = tested on: OVCAR-5 ovarian
RXF 393 renal = tested on: RXF 393 renal
SF-539 CNS = tested on: SF-539 CNS
SK-OV-3 ovarian = tested on: SK-OV-3 ovarian
SNB-19 CNS = tested on: SNB-19 CNS
UACC-257 melanoma = tested on: UACC-257 melanoma
HOP-92 NSCLC = tested on: HOP-92 NSCLC
MDA-MB-435 = tested on: MDA-MB-435

`C/C=C/CP(=O)(c1ccccc1)c1ccccc1` was tested, and the TGI (HT29 colon) was > 100 µM, the TGI (MALME-3M melanoma) was > 100 µM and the TGI (OVCAR-5 ovarian) was > 100 µM. The TGI (RXF 393 renal) was > 100 µM, the TGI (SF-539 CNS) was > 100 µM and the TGI (SK-OV-3 ovarian) was > 100 µM. The TGI (SNB-19 CNS) was > 100 µM and the TGI (UACC-257 melanoma) was > 100 µM.

`NC(=S)N/N=C1\C(=O)N(c2cccc([N+](=O)[O-])c2)C(=O)C1C(=O)Nc1cccc([N+](=O)[O-])c1` (stereo not drawn) was tested, and the TGI (HOP-92 NSCLC) was > 100 µM, the TGI (HT29 colon) was > 100 µM and the TGI (MALME-3M melanoma) was > 100 µM. The TGI (OVCAR-5 ovarian) was > 100 µM, the TGI (RXF 393 renal) was > 100 µM and the TGI (SF-539 CNS) was > 100 µM. The TGI (SK-OV-3 ovarian) was > 100 µM, the TGI (SNB-19 CNS) was > 100 µM and the TGI (UACC-257 melanoma) was > 100 µM.

`CCN(CC)CCCC(C)N/C(c1cccc(OC)c1)=c1\c(=O)[nH]n(-c2c3ccccc3nc3ccccc23)c(=O)\c1=C(/NC(C)CCCN(CC)CC)c1cccc(OC)c1` (stereo not drawn) was tested, and the GI50 (HT29 colon) was 0.591 µM, the TGI (HT29 colon) was 2.51 µM and the GI50 (MALME-3M melanoma) was 1.9 µM. For the same compound, the TGI (MALME-3M melanoma) was 3.54 µM, the GI50 (MDA-MB-435) was 1.45 µM and the TGI (MDA-MB-435) was 2.98 µM. For the same compound, the GI50 (OVCAR-5 ovarian) was 1.79 µM, the TGI (OVCAR-5 ovarian) was 5.21 µM and the GI50 (RXF 393 renal) was 1.02 µM. For the same compound, the TGI (RXF 393 renal) was 2.55 µM, the GI50 (SF-539 CNS) was 1.67 µM and the TGI (SF-539 CNS) was 3.21 µM. It also gave a GI50 (SK-OV-3 ovarian) of 2.23 µM, a TGI (SK-OV-3 ovarian) of 7.2 µM and a GI50 (SNB-19 CNS) of 3.18 µM. For the same compound, the TGI (SNB-19 CNS) was 13 µM, the GI50 (UACC-257 melanoma) was 1.78 µM and the TGI (UACC-257 melanoma) was 3.43 µM.

In the case of `O=C(Nc1ccc(N=Nc2ccccc2)cc1)Sc1ccccc1C(=O)O`, the TGI (HT29 colon) is reported as > 100 µM, the TGI (OVCAR-5 ovarian) is reported as > 100 µM and the TGI (RXF 393 renal) is reported as > 100 µM. For the same compound, the TGI (SF-539 CNS) was > 100 µM, the TGI (SNB-19 CNS) was > 100 µM and the TGI (UACC-257 melanoma) was > 100 µM.

With `COc1cc(-c2ccc(-[n+]3nc(-c4ccc([N+](=O)[O-])cc4)nn3-c3ccc([N+](=O)[O-])cc3)c(OC)c2)ccc1-[n+]1nc(-c2ccc([N+](=O)[O-])cc2)nn1-c1ccc([N+](=O)[O-])cc1` the GI50 (HT29 colon) was 3.43 µM, the TGI (HT29 colon) was 15.2 µM and the GI50 (MALME-3M melanoma) was 1.89 µM. The TGI (MALME-3M melanoma) was 4.47 µM, the GI50 (MDA-MB-435) was 2.51 µM and the TGI (MDA-MB-435) was 6.62 µM. It also gave a GI50 (OVCAR-5 ovarian) of 12.4 µM, a TGI (OVCAR-5 ovarian) of 45.5 µM and a GI50 (RXF 393 renal) of 2.25 µM. For the same compound, the TGI (RXF 393 renal) was 6.08 µM, the GI50 (SF-539 CNS) was 1.8 µM and the TGI (SF-539 CNS) was 3.97 µM. It also gave a GI50 (SK-OV-3 ovarian) of 9.08 µM, a TGI (SK-OV-3 ovarian) of 66.3 µM and a GI50 (SNB-19 CNS) of 11.9 µM. For the same compound, the TGI (SNB-19 CNS) was 69.3 µM, the GI50 (UACC-257 melanoma) was 2.83 µM and the TGI (UACC-257 melanoma) was 12 µM.

In the case of `CC(=O)Oc1cc2c(=O)oc3c(OC(C)=O)c(OC(C)=O)c(OC(C)=O)c4c(=O)oc(c1OC(C)=O)c2c34`, the TGI (HOP-92 NSCLC) is reported as 96.9 µM, the TGI (HT29 colon) is reported as > 100 µM and the TGI (MALME-3M melanoma) is reported as > 100 µM. The TGI (OVCAR-5 ovarian) was > 100 µM, the TGI (RXF 393 renal) was 32 µM and the TGI (SF-539 CNS) was 75.5 µM. The TGI (SK-OV-3 ovarian) was > 100 µM, the TGI (SNB-19 CNS) was > 100 µM and the TGI (UACC-257 melanoma) was > 100 µM.

`N#CC(c1ccc(Cl)cc1)c1cccc(Cl)n1` (stereo not drawn) was tested, and the TGI (HOP-92 NSCLC) was 74.8 µM, the TGI (HT29 colon) was > 100 µM and the TGI (MALME-3M melanoma) was > 100 µM. For the same compound, the TGI (OVCAR-5 ovarian) was > 100 µM, the TGI (SK-OV-3 ovarian) was > 100 µM and the TGI (SNB-19 CNS) was > 100 µM. The TGI (UACC-257 melanoma) was > 100 µM.

In the case of `N#Cc1c(C(N)=O)ncn1Cc1ccccc1`, the TGI (HOP-92 NSCLC) is reported as > 100 µM, the TGI (HT29 colon) is reported as > 100 µM and the TGI (MALME-3M melanoma) is reported as > 100 µM. For the same compound, the TGI (OVCAR-5 ovarian) was > 100 µM, the TGI (RXF 393 renal) was > 100 µM and the TGI (SF-539 CNS) was > 100 µM. For the same compound, the TGI (SK-OV-3 ovarian) was > 100 µM, the TGI (SNB-19 CNS) was > 100 µM and the TGI (UACC-257 melanoma) was > 100 µM.

For `O=C(CC1(O)C(=O)Nc2ccccc21)c1ccc(O)cc1O` (stereo not drawn), the TGI (HOP-92 NSCLC) was > 100 µM, the TGI (HT29 colon) was > 100 µM and the TGI (MALME-3M melanoma) was > 100 µM. The TGI (OVCAR-5 ovarian) was > 100 µM, the TGI (RXF 393 renal) was > 100 µM and the TGI (SF-539 CNS) was > 100 µM. The TGI (SK-OV-3 ovarian) was > 100 µM, the TGI (SNB-19 CNS) was > 100 µM and the TGI (UACC-257 melanoma) was > 100 µM.

For `Cc1ccc(NC(=O)/C(=N/NC(=O)CC#N)C2C(=O)N(c3ccccc3)N=C2N)cc1C` (stereo not drawn), the TGI (HOP-92 NSCLC) was > 100 µM, the TGI (HT29 colon) was > 100 µM and the TGI (MALME-3M melanoma) was > 100 µM. The TGI (OVCAR-5 ovarian) was > 100 µM, the TGI (RXF 393 renal) was > 100 µM and the TGI (SF-539 CNS) was > 100 µM. For the same compound, the TGI (SK-OV-3 ovarian) was > 100 µM, the TGI (SNB-19 CNS) was > 100 µM and the TGI (UACC-257 melanoma) was > 100 µM.

With `Cc1ccc(C2=NN(C)COC2C(F)(F)F)cc1` (stereo not drawn) the TGI (HOP-92 NSCLC) was > 100 µM, the TGI (HT29 colon) was > 100 µM and the TGI (MALME-3M melanoma) was > 100 µM. The TGI (OVCAR-5 ovarian) was > 100 µM, the TGI (RXF 393 renal) was > 100 µM and the TGI (SF-539 CNS) was > 100 µM. For the same compound, the TGI (SK-OV-3 ovarian) was > 100 µM, the TGI (SNB-19 CNS) was > 100 µM and the TGI (UACC-257 melanoma) was > 100 µM.

`COc1ccc(C2c3cc4c(cc3OC(O)(CO)C2C(=O)O)OCO4)c(OC)c1OC` (stereo not drawn) (tested in a mixture with another compound) was tested, and the TGI (HOP-92 NSCLC) was > 100 µM, the TGI (HT29 colon) was > 100 µM and the TGI (MALME-3M melanoma) was > 100 µM. For the same compound, the TGI (RXF 393 renal) was > 100 µM, the TGI (SF-539 CNS) was > 100 µM and the TGI (SK-OV-3 ovarian) was > 100 µM. For the same compound, the TGI (SNB-19 CNS) was > 100 µM and the TGI (UACC-257 melanoma) was > 100 µM.

With `CO/C=C/c1cc2c(cc1C(OC)OC)OCO2` the TGI (HOP-92 NSCLC) was > 100 µM, the TGI (HT29 colon) was > 100 µM and the TGI (MALME-3M melanoma) was > 100 µM. For the same compound, the TGI (OVCAR-5 ovarian) was > 100 µM, the TGI (RXF 393 renal) was > 100 µM and the TGI (SF-539 CNS) was > 100 µM. The TGI (SK-OV-3 ovarian) was 79.3 µM, the TGI (SNB-19 CNS) was > 100 µM and the TGI (UACC-257 melanoma) was > 100 µM.

`CCC12CC[C@H](C#N)N3CCc4c(n(c5ccccc45)C(=O)C1)C32` (stereo partly drawn) gave a TGI (HT29 colon) of 31.3 µM, a TGI (MALME-3M melanoma) of 19.3 µM and a TGI (OVCAR-5 ovarian) of 38.5 µM. It also gave a TGI (RXF 393 renal) of 29.6 µM, a TGI (SF-539 CNS) of 38.2 µM and a TGI (SK-OV-3 ovarian) of 75 µM. For the same compound, the TGI (UACC-257 melanoma) was 32.9 µM.

With `O=C(O/N=C1/CCC/C1=C\c1ccccc1)c1ccccc1` the TGI (HOP-92 NSCLC) was > 100 µM, the TGI (HT29 colon) was > 100 µM and the TGI (MALME-3M melanoma) was > 100 µM. For the same compound, the TGI (OVCAR-5 ovarian) was > 100 µM, the TGI (RXF 393 renal) was > 100 µM and the TGI (SF-539 CNS) was > 100 µM. For the same compound, the TGI (SK-OV-3 ovarian) was > 100 µM and the TGI (UACC-257 melanoma) was > 100 µM.
